From patent US20050014783A1, “Use of Rho-kinase inhibitors in the treatment of aneurysm and cardiac hypertrophy” (Schering Aktiengesellschaft, priority 2003, published 2005)
Marks after values point to notes of the source that are not given here.

Columns and labels:
[1] = system: ApoE-KO mice infused with angiotensin II; experiment: Angiotensin II-induced abdominal aortic aneurysm in apoE-KO mice; type: in vivo
Excerpt: Infusion of apoE-KO mice (Jackson Laboratories, Bar Harbor, Me.) with angiotensin II has been reported to lead to the formation of large abdominal aortic aneurysms (Daugherty et al. (2000) J. Clin. Invest. 105:1605-1612). This system can be used as a model system in which to study the effects of the Rho-kinase inhibitors of the present invention on these conditions, using the methods described in Wang et al. (2001) American J. Path. 159:1455-1464. (See Example 1).
(§1) For some parameters measured, comparative data was also collected for C57 Black mice, the mouse strain from which the ApoE-KO mouse is derived.

[2] = system: supra-renal aortic wall in apoE-KO mice; experiment: Apoptosis in aortic tissue (TUNEL, cell death detection ELISA, H & E staining); type: in vivo; settings: for apoptosis: TUNEL staining, supra-renal aorta, FIG. 2
Procedure: FIG. 3. To further quantify apoptosis in the aortic tissue, cell death detection ELISA assay was performed.

[3] = system: ApoE-KO mice infused with angiotensin II; experiment: Blood pressure, heart rate, serum cholesterol, aortic arch lesion area and aortic stiffness in Ang II-infused apoE-KO mice; type: in vivo
Excerpt: as §1

[4] = system: ApoE-KO mice infused with angiotensin II; experiment: Angiotensin II-induced cardiac hypertrophy in apoE-KO mice; type: in vivo
[5] = system: Rho-kinase; settings: cited from earlier work

O=S(=O)(c1cccc2cnccc12)N1CCCNCC1 [Fasudil, Hexahydro-1-(5-isoquinolylsulfonyl)-1H-1,4-diazepine]
Diameter (mm) ([1]; Ang II for 30 days, fasudil in drinking water, postmortem direct measurement): 1.5 ± 0.1 mm
Incidence (%) ([1]; abdominal aortic aneurysm, Ang II 1.44 mg/kg per day for 30 days, fasudil 1 mg/ml in drinking water): 41# %
incidence of abdominal aortic aneurysm formation ([1]; oral, >100 mg/kg daily in drinking water, n=20, p<0.05 vs. controls): 35%
decrease in the size of aneurysms ([1]; versus Ang II treated ApoE-KO mice, FIG. 1, fasudil 0.5 mg/ml and 1 mg/ml in drinking water): 29%
aortic wall changes (adventitial fibrosis, inflammation, destruction of smooth muscle cells and elastin) ([2]; H & E staining, high dose fasudil, animals with aneurysm): ameliorated, but not fully eliminated
apoptosis [2]: reducing apoptosis
apoptosis ([2]; listed as fasudil): decreased apoptosis
cytosolic DNA fragmentation increased by Ang II ([2]; cell death detection ELISA, aortic tissue, P<0.01, FIG. 3): abolished
Lesion (%) ([3]; aortic arch atherosclerotic lesion area, Ang II for 30 days, fasudil in drinking water): 25 ± 3%
effect on aortic arch atherosclerotic lesion area ([3]; mouse, in vivo): no effect
effect on aortic stiffness ([3]; mouse, in vivo): no effect
effect on serum cholesterol ([3]; mouse, in vivo): no effect
effect on heart rate ([3]; tail cuff instrumentation): no effect
effect on systolic blood pressure (SBP) ([3]; tail cuff instrumentation): no effect
Heart/body Wt ([4]; Ang II for 30 days, fasudil in drinking water): 6.1 ± 0.1
Myocyte (mm^2) ([4]; cardiomyocyte size, Ang II for 30 days, fasudil in drinking water): 262 ± 16# mm^2
gene expression of ANP and collagen III ([4]; heart of apoE-KO mice): normalized
angiotensin-II induced cardiac hypertrophy ([4]; measured by heart weight or cardiomyocyte size): significantly reduced
cardiac function ([4]; mouse, in vivo): improved
perivascular fibrosis ([4]; mouse, in vivo): reduced
decrease in the degree of cardiac hypertrophy ([4]; versus Ang II treated ApoE-KO mice, FIG. 4, fasudil 0.5 mg/ml and 1 mg/ml): 14%

O=S(=O)(c1cccc2c(O)nccc12)N1CCCNCC1 [hydroxyfasudil]
specificity of the inhibitory effect on Rho-kinase [5]: more specific inhibitory effect on Rho-kinase
